Measured values taken from patent US20120022045A1, “BRIDGED COMPOUNDS AS HIV INTEGRASE INHIBITORS” (priority 2009, published 2012).
Like-named read-outs stand apart in the source and are kept apart here.

Key:
Type in all cases: cell-based
HIV-1 = test: Inhibition of acute HIV-1 infection of T-lymphoid cells (spread assay); conditions: 10% FBS, read-out: IC95 (nM) in the presence of 10% FBS
Method: Assays for the inhibition of acute HIV-1 infection of T-lymphoid cells were conducted in accordance with Vacca, J. P. et al., Proc. Natl. Acad. Sci. USA 1994, 91: 4096.

HIV-1 wild type IIIB = test: Single cycle infectivity assay in HeLa P4-2 cells, wild type virus
Method: (§1) An assay for measuring the inhibition of acute HIV-1 infection with HeLa P4-2 cells in a single cycle infectivity assay was conducted using methods described in Joyce et al., J. Biol. Chem. 2002, 277: 45811, Hazuda et al., Science 2000, 287: 646, and Kimpton et al, J. Virol. 1992, 66: 2232. Proviral plasmids encoding viruses containing specific mutations in the integrase gene (N155H, Q148R, Y143R, E92Q, or G140S/Q148H) were generated by site-directed mutagenesis, and viruses were produced by transfecting 293T cells with the appropriate proviral plasmids.

[1] = test system: HIV-1 integrase mutant virus N155H; test: Single cycle infectivity assay in HeLa P4-2 cells, integrase mutant N155H virus; conditions: fold shift in IC50 versus wild type IIIB
Method: as §1

[2] = test system: HIV-1 integrase mutant virus Q148R; test: Single cycle infectivity assay in HeLa P4-2 cells, integrase mutant Q148R virus; conditions: fold shift in IC50 versus wild type IIIB
Method: as §1

[3] = test system: HIV-1 integrase mutant virus Y143R; test: Single cycle infectivity assay in HeLa P4-2 cells, integrase mutant Y143R virus; conditions: fold shift in IC50 versus wild type IIIB
Method: as §1

[4] = test system: HIV-1 integrase mutant virus G140S/Q148H; test: Single cycle infectivity assay in HeLa P4-2 cells, integrase mutant G140S/Q148H virus; conditions: fold shift in IC50 versus wild type IIIB
Method: as §1

[5] = Human immunodeficiency virus 1, T-lymphoid
[6] = Human immunodeficiency virus 1, IIIB, HeLaP4-2, wild type IIIB

Row | Compound | IC95 (HIV-1; [5]) | IC50 (HIV-1 wild type IIIB; wild type IIIB) | N155H (shift) [1] | Q148R (shift) [2] | Y143R (shift) [3] | G140S/Q148H (shift) [4] | IC95 (HIV-1) | IC50 (HIV-1 wild type IIIB; [6])
1 | CCC12CCC(NC(=O)C(=O)N(C)C)(CO1)c1nc(C(=O)NCc3ccc(F)cc3)c(O)c(=O)n1C2 (single isomer, unassigned) [Example 22A, N′-(9-ethyl-4-{[(4-fluorolbenzyl)amino]carbonyl}-5-hydroxy-6-oxo-10-oxa-3,7-diazatricyclo[7.2.2.0^2,7]trideca-2,4-dien-1-yl)-N,N-dimethylethanediamide] | 12.7 nM | 7 nM | 23 fold | 24 fold | 5 fold | 198 fold |  | 
2 | CC1C2CCC(N(C)C(=O)C(=O)N(C)C)(CO2)c2nc(C(=O)NCc3ccc(F)cc3)c(O)c(=O)n21 (single isomer, unassigned) [Example 27D, N-(4-{[(4-fluorobenzyl)amino]carbonyl}-5-hydroxy-8-methyl-6-oxo-10-oxa-3,7-diazatricyclo[7.2.2.0^2,7]trideca-2,4-dien-1-yl)-N,N′,N′-trimethylethanediamide] |  | 11 nM | 1 fold | 1 fold | 1 fold | 2 fold | 6.9 nM | 
3 | CN(C)C(=O)C(=O)N(C)C12CCC(CC1)Cn1c2nc(C(=O)NCc2ccc(F)cc2)c(O)c1=O (single isomer, unassigned) [Example 24A] | 11.7 nM |  | 4 fold | 5 fold | 1 fold | >111 fold |  | 15 nM
4 | CN(C)C(=O)C(=O)N(C)C12CCC(CC1)n1c2nc(C(=O)NCc2ccc(F)cc2)c(O)c1=O [Example 30] | 22.4 nM |  | 7 fold | 9 fold | 3 fold | 32 fold |  | 17 nM
5 | CCC1C2CCC(NC(=O)C(=O)N(C)C)(CO2)c2nc(C(=O)NCc3ccc(F)cc3)c(O)c(=O)n21 (single isomer, unassigned) [Example 26D, N′-(8-ethyl-4-{[(4-fluorobenzyl)amino]carbonyl}-5-hydroxy-6-oxo-10-oxa-3,7-diazatricyclo[7.2.2.0^2,7]trideca-2,4-dien-1-yl)-N-dimethylethanediamide] |  | 16 nM | 1 fold | 1 fold | 2 fold | 1 fold | 5.1 nM | 
6 | CC1C2CCC(NC(=O)C(=O)N(C)C)(CO2)c2nc(C(=O)NCc3ccc(F)cc3)c(O)c(=O)n21 (single isomer, unassigned) [Example 29D, N′-(4-{[(4-Fluorobenzyl)amino]carbonyl}-5-hydroxy-8-methyl-6-oxo-10-oxa-3,7-diazatricyclo[7.2.2.0^2,7]trideca-2,4-dien-1-yl)-N-dimethylethanediamide] |  | 21 nM | 2 fold | 1 fold | 1 fold | 2 fold | 21.6 nM | 
7 | CCN(C(=O)C(=O)N(C)C)C12CCC(Cn3c1nc(C(=O)NCc1ccc(F)c(C)c1)c(O)c3=O)OC2 (single isomer, unassigned) [Example 18B, N-ethyl-N-(4-{[(4-fluoro-3-methylbenzyl)amino]carbonyl}-5-hydroxy-6-oxo-10-oxa-3,7-diazatricyclo[7.2.2.0^2,7]trideca-2,4-dien-1-yl)-N,N-dimethylethanediamide] | 10.7 nM |  | 2 fold | 2 fold | 2 fold | 19 fold |  | 10 nM
8 | CCC12CCC(N(C)C(=O)C(=O)N(C)C)(CO1)c1nc(C(=O)NCc3ccc(F)cc3)c(O)c(=O)n1C2 (single isomer, unassigned) [Example 20B, N-(9-ethyl-4-{[(4-fluorolbenzyl)amino]carbonyl}-5-hydroxy-6-oxo-10-oxa-3,7-diazatricyclo[7.2.2.0^2,7]trideca-2,4-dien-1-yl)-N,N′,N′-trimethylethanediamide] |  | 17 nM | 7 fold | 11 fold | 1 fold | 102 fold | 16.7 nM | 
9 | CC1C2CCC(NC(=O)C(=O)N(C)C)(CO2)c2nc(C(=O)NCc3ccc(F)cc3)c(O)c(=O)n21 (single isomer, unassigned) [Example 29A, N′-(4-{[(4-Fluorobenzyl)amino]carbonyl}-5-hydroxy-8-methyl-6-oxo-10-oxa-3,7-diazatricyclo[7.2.2.0^2,7]trideca-2,4-dien-1-yl)-N-dimethylethanediamide] |  | 20 nM | 1 fold | 1 fold | 1 fold | 4 fold | 17.9 nM | 
10 | CC1C2CCC(N(C)C(=O)C(=O)N(C)C)(CO2)c2nc(C(=O)NCc3ccc(F)cc3)c(O)c(=O)n21 (single isomer, unassigned) [Example 27B, N-(4-{[(4-fluorobenzyl)amino]carbonyl}-5-hydroxy-8-methyl-6-oxo-10-oxa-3,7-diazatricyclo[7.2.2.0^2,7]trideca-2,4-dien-1-yl)-N,N′,N′-trimethylethanediamide] |  | 24 nM | 20 fold | 9 fold | 7 fold | >70 fold | 27.3 nM | 
11 | CCC1C2CCC(N(C)C(=O)C(=O)N(C)C)(CO2)c2nc(C(=O)NCc3ccc(F)cc3)c(O)c(=O)n21 (single isomer, unassigned) [Example 25D, N-(8-ethyl-4-{[(4-fluorobenzyl)amino]carbonyl}-5-hydroxy-6-oxo-10-oxa-3,7-diazatricyclo[7.2.2.0^2,7]trideca-2,4-dien-1-yl)-N,N′,N′-trimethylethanediamide] |  | 15 nM | 98 fold | 38 fold | 3 fold | >111 fold | 7.2 nM | 
12 | CCC1C2CCC(NC(=O)C(=O)N(C)C)(CO2)c2nc(C(=O)NCc3ccc(F)cc3)c(O)c(=O)n21 (single isomer, unassigned) [Example 26B, N′-(8-ethyl-4-{[(4-fluorobenzyl)amino]carbonyl}-5-hydroxy-6-oxo-10-oxa-3,7-diazatricyclo[7.2.2.0^2,7]trideca-2,4-dien-1-yl)-N-dimethylethanediamide] |  | 36 nM | 1 fold | 1 fold | 1 fold | 1 fold | 22.6 nM | 
13 | CCC1C2CCC(N(C)C(=O)C(=O)N(C)C)(CO2)c2nc(C(=O)NCc3ccc(F)cc3)c(O)c(=O)n21 (single isomer, unassigned) [Example 25B, N-(8-ethyl-4-{[(4-fluorobenzyl)amino]carbonyl}-5-hydroxy-6-oxo-10-oxa-3,7-diazatricyclo[7.2.2.0^2,7]trideca-2,4-dien-1-yl)-N,N′,N′-trimethylethanediamide] |  | 8 nM | 1 fold | 1 fold | 1 fold | 1 fold | 7.9 nM | 
14 | CCC12CCC(NC(=O)C(=O)N(C)C)(CO1)c1nc(C(=O)NCc3ccc(F)cc3)c(O)c(=O)n1C2 (single isomer, unassigned) [Example 22B, N′-(9-ethyl-4-{[(4-fluorolbenzyl)amino]carbonyl}-5-hydroxy-6-oxo-10-oxa-3,7-diazatricyclo[7.2.2.0^2,7]trideca-2,4-dien-1-yl)-N,N-dimethylethanediamide] |  | 19 nM | 3 fold | 3 fold | 1 fold | 10 fold | 12.6 nM | 
15 | CCC1C2CCC(NC(=O)C(=O)N(C)C)(CO2)c2nc(C(=O)NCc3ccc(F)cc3)c(O)c(=O)n21 (single isomer, unassigned) [Example 26C, N′-(8-ethyl-4-{[(4-fluorobenzyl)amino]carbonyl}-5-hydroxy-6-oxo-10-oxa-3,7-diazatricyclo[7.2.2.0^2,7]trideca-2,4-dien-1-yl)-N-dimethylethanediamide] |  | 23 nM | 12 fold | 9 fold | 2 fold | 26 fold | 18.1 nM | 
